In this test the test system is dogs. Kind of test: Previous experiment in dogs treated with the same formulations. The class given is in vivo, dog. The method, then:
4 days prior to dosing, formulation were prepared containing: (1) 8 mg insulin, 150 mg EDTA, 125 mg SBTI in 1 ml fish oil in a soft-gel capsule (SwissCup), (2). 8 mg insulin, 150 mg EDTA, 150000 KIU Aprotinin in 1 ml fish oil in a soft-gel capsule (SwissCup), (3) 8 mg insulin, 150 mg EDTA, 150000 KIU Aprotinin, 125 mg SBTI in 1 ml fish oil in a soft-gel capsule (SwissCup). The formulations were stored in the refrigerator (4° C.) until dosing.
Thus, the results regarding the reduction in blood glucose levels with insulin and a combination of protease inhibitors was unexpected.
Thus, the results regarding the reduction in blood C-peptide levels with insulin and a combination of protease inhibitors was unexpected.
The above described formulations are also active with 0.5 ml fish oil both in dogs and humans.

Turning to Aprotinin, the “reaction of dogs to Aprotinin” value is “do not react”.

The values are drawn from patent US10058593B2, “Methods and compositions for oral administration of proteins” (Oramed Ltd., priority 2008, dated 2018).
